PubChem BioAssay (NCI)
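Method: 48-hour compound exposure of cells in 96-well plates, five concentrations, linear interpolation of endpoints. TGI is the concentration that stops growth completely.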

Legend:
Assay in all cases: DTP human tumour cell line panel, 48 h
NCI/ADR-RES ovarian = tested on: NCI/ADR-RES ovarian
SR leukemia = tested on: SR leukemia
ACHN renal = tested on: ACHN renal
SNB-19 CNS = tested on: SNB-19 CNS
T-47D breast = tested on: T-47D breast
MCF7 breast = tested on: MCF7 breast
SW-620 colon = tested on: SW-620 colon
HL-60(TB) leukemia = tested on: HL-60(TB) leukemia
NCI-H23 lung = tested on: NCI-H23 lung
SK-MEL-5 melanoma = tested on: SK-MEL-5 melanoma
HT29 colon = tested on: HT29 colon
CCRF-CEM leukemia = tested on: CCRF-CEM leukemia
SF-268 CNS = tested on: SF-268 CNS
IGROV1 ovarian = tested on: IGROV1 ovarian
HCT-15 colon = tested on: HCT-15 colon
HS 578T breast = tested on: HS 578T breast
EKVX NSCLC = tested on: EKVX NSCLC
UO-31 renal = tested on: UO-31 renal
NCI-H522 lung = tested on: NCI-H522 lung
OVCAR-3 ovarian = tested on: OVCAR-3 ovarian
PC-3 prostate = tested on: PC-3 prostate
SK-MEL-28 melanoma = tested on: SK-MEL-28 melanoma
OVCAR-8 ovarian = tested on: OVCAR-8 ovarian
OVCAR-5 ovarian = tested on: OVCAR-5 ovarian
RPMI-8226 leukemia = tested on: RPMI-8226 leukemia
SF-295 CNS = tested on: SF-295 CNS
M14 melanoma = tested on: M14 melanoma
DU-145 prostate = tested on: DU-145 prostate
K-562 leukemia = tested on: K-562 leukemia
UACC-257 melanoma = tested on: UACC-257 melanoma
COLO 205 colon = tested on: COLO 205 colon
CAKI-1 renal = tested on: CAKI-1 renal
HOP-62 NSCLC = tested on: HOP-62 NSCLC
BT-549 breast = tested on: BT-549 breast
OVCAR-4 ovarian = tested on: OVCAR-4 ovarian
MOLT-4 leukemia = tested on: MOLT-4 leukemia
SK-MEL-2 melanoma = tested on: SK-MEL-2 melanoma
MDA-MB-231 breast = tested on: MDA-MB-231 breast
NCI-H460 lung = tested on: NCI-H460 lung
KM12 colon = tested on: KM12 colon
UACC-62 melanoma = tested on: UACC-62 melanoma
RXF 393 renal = tested on: RXF 393 renal
786-0 renal = tested on: 786-0 renal
LOX IMVI melanoma = tested on: LOX IMVI melanoma
U251 CNS = tested on: U251 CNS
MALME-3M melanoma = tested on: MALME-3M melanoma
MDA-MB-435 = tested on: MDA-MB-435
NCI-H226 lung = tested on: NCI-H226 lung
SN12C renal = tested on: SN12C renal
MDA-N = tested on: MDA-N
A549 NSCLC = tested on: A549 NSCLC
TK-10 renal = tested on: TK-10 renal
SF-539 CNS = tested on: SF-539 CNS
HCC-2998 colon = tested on: HCC-2998 colon
SNB-75 CNS = tested on: SNB-75 CNS
SK-OV-3 ovarian = tested on: SK-OV-3 ovarian
HCT-116 colon = tested on: HCT-116 colon
HOP-92 NSCLC = tested on: HOP-92 NSCLC
A498 renal = tested on: A498 renal

C=C(C)[C@H]1CC23C(=O)[C@@](C)(C[C@H]2C1(C)C)C(=O)C(C(=O)C(C)C)=C3O
TGI (NCI/ADR-RES ovarian): 27.8 µM
TGI (SR leukemia): 38.7 µM
TGI (ACHN renal): 30.4 µM
TGI (SNB-19 CNS): 69.7 µM
TGI (T-47D breast): > 100 µM
TGI (MCF7 breast): 32.6 µM
TGI (SW-620 colon): 34.5 µM
TGI (HL-60(TB) leukemia): 41.6 µM
TGI (NCI-H23 lung): 43 µM
TGI (SK-MEL-5 melanoma): 31.5 µM
TGI (HT29 colon): 26.4 µM
TGI (CCRF-CEM leukemia): 24.9 µM
TGI (SF-268 CNS): 50.4 µM
TGI (IGROV1 ovarian): 32.7 µM
TGI (HCT-15 colon): 33.1 µM
TGI (HS 578T breast): 58.1 µM
TGI (EKVX NSCLC): 28.8 µM
TGI (UO-31 renal): 39.2 µM
TGI (NCI-H522 lung): 36.8 µM
TGI (OVCAR-3 ovarian): 37.7 µM
TGI (PC-3 prostate): 33 µM
TGI (SK-MEL-28 melanoma): 28.6 µM
TGI (OVCAR-8 ovarian): 40.2 µM
TGI (OVCAR-5 ovarian): 40.8 µM
TGI (RPMI-8226 leukemia): 27.9 µM
TGI (SF-295 CNS): 36.7 µM
TGI (M14 melanoma): 31.4 µM
TGI (DU-145 prostate): > 100 µM
TGI (K-562 leukemia): 49.3 µM
TGI (UACC-257 melanoma): 62.3 µM
TGI (COLO 205 colon): 23.1 µM
TGI (CAKI-1 renal): 55.3 µM
TGI (HOP-62 NSCLC): 40.4 µM
TGI (BT-549 breast): 37.7 µM
TGI (OVCAR-4 ovarian): 34.9 µM
TGI (MOLT-4 leukemia): 19 µM
TGI (SK-MEL-2 melanoma): 33.6 µM
TGI (MDA-MB-231 breast): 32.2 µM
TGI (NCI-H460 lung): 45.3 µM
TGI (KM12 colon): 41.1 µM
TGI (UACC-62 melanoma): 29.8 µM
TGI (RXF 393 renal): 29 µM
TGI (786-0 renal): 35 µM
TGI (LOX IMVI melanoma): 38.9 µM
TGI (U251 CNS): 39.7 µM
TGI (MALME-3M melanoma): 28.6 µM
TGI (MDA-MB-435): 31.3 µM
TGI (NCI-H226 lung): 30.3 µM
TGI (SN12C renal): 32.9 µM
TGI (MDA-N): 35.7 µM
TGI (A549 NSCLC): 57.9 µM
TGI (TK-10 renal): 53.3 µM

OC(CC(O)(C(F)(F)Cl)C(F)(F)Cl)c1ccccc1 (configuration not stated)
TGI (NCI/ADR-RES ovarian): > 10 µM
TGI (SR leukemia): > 10 µM
TGI (ACHN renal): > 10 µM
TGI (SNB-19 CNS): > 10 µM
TGI (T-47D breast): > 10 µM
TGI (MCF7 breast): > 10 µM
TGI (SW-620 colon): > 10 µM
TGI (HL-60(TB) leukemia): > 10 µM
TGI (NCI-H23 lung): > 10 µM
TGI (SK-MEL-5 melanoma): 0.0502 µM
TGI (HT29 colon): > 10 µM
TGI (CCRF-CEM leukemia): > 10 µM
TGI (SF-268 CNS): > 10 µM
TGI (SF-539 CNS): > 10 µM
TGI (IGROV1 ovarian): 0.0883 µM
TGI (HCT-15 colon): > 10 µM
TGI (HCC-2998 colon): > 10 µM
TGI (HS 578T breast): > 10 µM
TGI (EKVX NSCLC): > 10 µM
TGI (SNB-75 CNS): > 10 µM
TGI (NCI-H522 lung): > 10 µM
TGI (OVCAR-3 ovarian): > 10 µM
TGI (SK-OV-3 ovarian): > 10 µM
TGI (PC-3 prostate): > 10 µM
TGI (SK-MEL-28 melanoma): > 10 µM
TGI (HCT-116 colon): > 10 µM
TGI (OVCAR-8 ovarian): > 10 µM
TGI (OVCAR-5 ovarian): > 10 µM
TGI (RPMI-8226 leukemia): > 10 µM
TGI (SF-295 CNS): > 10 µM
TGI (DU-145 prostate): > 10 µM
TGI (K-562 leukemia): > 10 µM
TGI (UACC-257 melanoma): > 10 µM
TGI (COLO 205 colon): > 10 µM
TGI (CAKI-1 renal): > 10 µM
TGI (HOP-62 NSCLC): > 10 µM
TGI (BT-549 breast): > 10 µM
TGI (OVCAR-4 ovarian): > 10 µM
TGI (MOLT-4 leukemia): > 10 µM
TGI (SK-MEL-2 melanoma): > 10 µM
TGI (MDA-MB-231 breast): > 10 µM
TGI (NCI-H460 lung): > 10 µM
TGI (KM12 colon): > 10 µM
TGI (UACC-62 melanoma): > 10 µM
TGI (RXF 393 renal): > 10 µM
TGI (HOP-92 NSCLC): > 10 µM
TGI (A498 renal): 0.0548 µM
TGI (LOX IMVI melanoma): > 10 µM
TGI (U251 CNS): > 10 µM
TGI (MALME-3M melanoma): > 10 µM
TGI (NCI-H226 lung): > 10 µM
TGI (SN12C renal): > 10 µM
TGI (MDA-N): > 10 µM
TGI (A549 NSCLC): > 10 µM
TGI (TK-10 renal): > 10 µM
